ChEMBL document CHEMBL4665869, “New thiazolopyrimidine as anticancer agents: Synthesis, biological evaluation, DNA binding, molecular modeling and ADMET study” (Bioorg Med Chem Lett, 2020)
Converted amounts (≈) assume the structure as drawn. The source made the active and inactive calls. The calls are words filed in the database; no cut-off is given here.

Columns and labels:
OVCAR-4 = test: Growth inhibition of human OVCAR-4 cells at 10 uM relative to control; type: functional; conditions: read-out: GI
IGROV-1 = test: Growth inhibition of human IGROV-1 cells at 10 uM relative to control; type: functional
MDA-MB-231 = test: Growth inhibition of human MDA-MB-231 cells at 10 uM relative to control; type: functional
Hs-578T = test: Growth inhibition of human Hs-578T cells at 10 uM relative to control; type: functional; conditions: read-out: GI
DNA = test: Displacement of methyl green from DNA (unknown origin) assessed as DNA intercalation after 24 hrs by colorimetric assay; type: nucleic-acid assay
[1] = Growth inhibition of human breast cancer cells; type: functional; conditions: Breast cancer cell line
NCI-H23 = test: Growth inhibition of human NCI-H23 cells at 10 uM relative to control; type: functional
COLO 205 = test: Growth inhibition of human COLO 205 cells at 10 uM relative to control; type: functional
SK-MEL-2 = test: Growth inhibition of human SK-MEL-2 cells at 10 uM relative to control; type: functional
M14 = test: Growth inhibition of human M14 cells at 10 uM relative to control; type: functional
HCT-15 = test: Growth inhibition of human HCT-15 cells at 10 uM relative to control; type: functional
SF-295 = test: Growth inhibition of human SF-295 cells at 10 uM relative to control; type: functional
HCT-116 = test: Growth inhibition of human HCT-116 cells at 10 uM relative to control; type: functional
HOP-92 = test: Growth inhibition of human HOP-92 cells at 10 uM relative to control; type: functional
SR = test: Growth inhibition of human SR cells at 10 uM relative to control; type: functional
SK-OV-3 = test: Growth inhibition of human SK-OV-3 cells at 10 uM relative to control; type: functional
[2] = Growth inhibition of human ovarian cancer cells; type: functional; conditions: Ovarian cancer cell line
[3] = Growth inhibition of human Non-small cell lung cancer cells; type: functional; conditions: Non-small cell lung cancer cell line
NCI/ADR-RES = test: Growth inhibition of human NCI/ADR-RES cells at 10 uM relative to control; type: functional; conditions: read-out: GI
Leukemia cell = test: Growth inhibition of human leukemia cancer cells; type: functional
HL-60(TB) = test: Growth inhibition of human HL-60(TB) cells at 10 uM relative to control; type: functional
DU-145 = test: Growth inhibition of human DU-145 cells at 10 uM relative to control; type: functional
HT-29 = test: Growth inhibition of human HT-29 cells at 10 uM relative to control; type: functional
K562 = test: Growth inhibition of human K562 cells at 10 uM relative to control; type: functional; conditions: read-out: GI
SF-539 = test: Growth inhibition of human SF-539 cells at 10 uM relative to control; type: functional
RXF 393 = test: Growth inhibition of human RXF 393 cells at 10 uM relative to control; type: functional
MDA-MB-435 = test: Growth inhibition of human MDA-MB-435 cells at 10 uM relative to control; type: functional
NCI-H322M = test: Growth inhibition of human NCI-H322M cells at 10 uM relative to control; type: functional; conditions: read-out: GI
CCRF-CEM = test: Growth inhibition of human CCRF-CEM cells at 10 uM relative to control; type: functional
MCF7 = test: Growth inhibition of human MCF7 cells at 10 uM relative to control; type: functional
Malme-3M = test: Growth inhibition of human Malme-3M cells at 10 uM relative to control; type: functional
PC-3 = test: Growth inhibition of human PC-3 cells at 10 uM relative to control; type: functional
KM12 = test: Growth inhibition of human KM12 cells at 10 uM relative to control; type: functional
A498 = test: Growth inhibition of human A498 cells at 10 uM relative to control; type: functional
Melanoma cell line = test: Growth inhibition of human melanoma cancer cells; type: functional
[4] = Growth inhibition of human prostate cancer cells; type: functional; conditions: Prostate tumor cell line
SK-MEL-5 = test: Growth inhibition of human SK-MEL-5 cells at 10 uM relative to control; type: functional
TK-10 = test: Growth inhibition of human TK-10 cells at 10 uM relative to control; type: functional
HOP-62 = test: Growth inhibition of human HOP-62 cells at 10 uM relative to control; type: functional
SW-620 = test: Growth inhibition of human SW-620 cells at 10 uM relative to control; type: functional
A549 = test: Growth inhibition of human A549 cells at 10 uM relative to control; type: functional
NCI-H522 = test: Growth inhibition of human NCI-H522 cells at 10 uM relative to control; type: functional
[5] = Growth inhibition of human colon cancer cells; type: functional; conditions: Colon cancer cell line
SK-MEL-28 = test: Growth inhibition of human SK-MEL-28 cells at 10 uM relative to control; type: functional
MOLT-4 = test: Growth inhibition of human MOLT-4 cells at 10 uM relative to control; type: functional
UACC-257 = test: Growth inhibition of human UACC-257 cells at 10 uM relative to control; type: functional
LOX IMVI = test: Growth inhibition of human LOX IMVI cells at 10 uM relative to control; type: functional
NCI-H226 = test: Growth inhibition of human NCI-H226 cells at 10 uM relative to control; type: functional; conditions: read-out: GI
OVCAR-8 = test: Growth inhibition of human OVCAR-8 cells at 10 uM relative to control; type: functional; conditions: read-out: GI
U-251 = test: Growth inhibition of human U-251 cells at 10 uM relative to control; type: functional
[6] = Growth inhibition of human CNS cancer cells; type: functional; conditions: CNS cell
[7] = Growth inhibition of human renal cancer cells; type: functional; conditions: Renal cancer cell line
T47D = test: Growth inhibition of human T47D cells at 10 uM relative to control; type: functional; conditions: read-out: GI
RPMI-8226 = test: Growth inhibition of human RPMI-8226 cells at 10 uM relative to control; type: functional
786-0 = test: Growth inhibition of human 786-0 cells at 10 uM relative to control; type: functional
[8] = read-out: LC50 (the source's name)

## COc1cc(/C=C/C2=CC(c3cc(OC)c(OC)c(OC)c3)N3C=C(C)SC3=N2)cc(OC)c1OC (stereo not drawn)
OVCAR-4
  inhibition of growth at 10 µM: 88.4%
IGROV-1
  growth inhibition (GI): Active
MDA-MB-231
  growth inhibition (GI): Active
Hs-578T
  inhibition of growth at 10 µM: 98%
DNA
  IC50: 36.13 µg/mL (≈ 70.8 µM)
[1]
  GI50: 1.39 µM
  TGI: 17.9 µM
[1]; [8]
  CC50: 68.7 µM
NCI-H23
  growth inhibition (GI): Active
COLO 205
  growth inhibition (GI): Active
SK-MEL-2
  growth inhibition (GI): Active
M14
  growth inhibition (GI): Active
HCT-15
  growth inhibition (GI): Active
SF-295
  growth inhibition (GI): Active
HCT-116
  growth inhibition (GI): Active
HOP-92
  growth inhibition (GI): Active
SR
  growth inhibition (GI): Active
SK-OV-3
  growth inhibition (GI): Active
[2]
  GI50: 1.75 µM
  TGI: 33.9 µM
[2]; [8]
  CC50: 76.5 µM
[3]
  GI50: 1.94 µM
  TGI: 4.81 µM
[3]; [8]
  CC50: 62.9 µM
NCI/ADR-RES
  inhibition of growth at 10 µM: 80.6%
Leukemia cell
  GI50: 0.43 µM
  TGI: 61.9 µM
Leukemia cell; [8]
  CC50: > 100 µM
HL-60(TB)
  growth inhibition (GI): Active
DU-145
  growth inhibition (GI): Active
HT-29
  growth inhibition (GI): Active
K562
  inhibition of growth at 10 µM: 97.8%
SF-539
  growth inhibition (GI): Active
RXF 393
  growth inhibition (GI): Active
MDA-MB-435
  growth inhibition (GI): Active
NCI-H322M
  inhibition of growth at 10 µM: 86.4%
CCRF-CEM
  growth inhibition (GI): Active
MCF7
  growth inhibition (GI): Active
Malme-3M
  growth inhibition (GI): Active
PC-3
  growth inhibition (GI): Active
KM12
  growth inhibition (GI): Active
A498
  growth inhibition (GI): Active
Melanoma cell line
  GI50: 0.99 µM
  TGI: 3.37 µM
Melanoma cell line; [8]
  CC50: 18.2 µM
[4]
  GI50: 1.69 µM
  TGI: 52.9 µM
[4]; [8]
  CC50: > 100 µM
SK-MEL-5
  growth inhibition (GI): Active
TK-10
  growth inhibition (GI): Active
HOP-62
  growth inhibition (GI): Active
SW-620
  growth inhibition (GI): Active
A549
  growth inhibition (GI): Active
NCI-H522
  growth inhibition (GI): Active
[5]
  GI50: 0.92 µM
  TGI: 3.62 µM
[5]; [8]
  CC50: 36 µM
SK-MEL-28
  growth inhibition (GI): Active
MOLT-4
  growth inhibition (GI): Active
UACC-257
  growth inhibition (GI): Active
LOX IMVI
  growth inhibition (GI): Active
NCI-H226
  inhibition of growth at 10 µM: 97.3%
OVCAR-8
  inhibition of growth at 10 µM: 91.9%
U-251
  growth inhibition (GI): Active
[6]
  GI50: 1.85 µM
  TGI: 10.2 µM
[6]; [8]
  CC50: 54.2 µM
[7]
  GI50: 1.49 µM
  TGI: 4.38 µM
[7]; [8]
  CC50: 54.7 µM
T47D
  inhibition of growth at 10 µM: 92%
RPMI-8226
  growth inhibition (GI): Active
786-0
  growth inhibition (GI): Active
